Laboratory results from US8466132B2, “Substituted tetracycline compounds” (Paratek Pharmaceuticals, Inc., priority 2004, dated 2013).

Tests used:
Type in all cases: cell-based
in vitro = assay: in vitro
Description: COS-1 and CHO-K1 cell suspensions were prepared, seeded into 96-well tissue culture treated black-walled microtiter plates (density determined by cell line), and incubated overnight at 37° C., in 5% CO2 and approximately 95% humidity. The following day, serial dilutions of drug were prepared under sterile conditions and transferred to cell plates. Cell/Drug plates were incubated under the above conditions for 24 hours. Following the incubation period, media/drug was aspirated and 50 μL of Resazurin (0.042 mg/ml in PBS w/Ca and Mg) was added. The plates were then incubated under the above conditions for 2 hours and then in the dark at room temperature for an additional 30 minutes. Fluorescence measurements were taken (excitation 535 nm, emission 590 nm). The IC50 (concentration of drug causing 50% growth inhibition) was then calculated.

S. aureus RN450 = assay: In vitro minimum inhibitory concentration (MIC) assay, S. aureus; set-up: key: Compounds which showed superior inhibition of S. aureus, S. pseumoniae and E. coli are indicated by “***,”; compounds which showed very good or good inhibition of S. aureus, S. pseumoniae and E. coli are indicated by “**” or “*” respectively; compounds which showed very good or good inhibition of S. aureus, S. pseumoniae and E. coli are indicated by “**” or “*” respectively; details: broth microdilution in CAMHB, 35° C., approximately 18 hour
Description: (§1) The following assay is used to determine the efficacy of the tetracycline compounds against common bacteria. 2 mg of each compound is dissolved in 100 μl of DMSO. The solution is then added to cation-adjusted Mueller Hinton broth (CAMHB), which results in a final compound concentration of 200 μg per ml. The tetracycline compound solutions are diluted to 50 μL volumes, with a test compound concentration of 0.098 μg/ml. Optical density (OD) determinations are made from fresh log-phase broth cultures of the test strains. Dilutions are made to achieve a final cell density of 1×10^6 CFU/ml. At OD=1, cell densities for different genera should be approximately:
(§2) 50 μl of the cell suspensions are added to each well of microtiter plates. The final cell density should be approximately 5×10^5 CFU/ml. These plates are incubated at 35° C. in an ambient air incubator for approximately 18 hour. The plates are read with a microplate reader and are visually inspected when necessary. The MIC is defined as the lowest concentration of the tetracycline compound that inhibits growth.
(§3) Table 3 gives the MIC (μg/mL) of selected substituted tetracycline compounds against S. aureus, S. pseuimoniae, and E. coli.

S. pneumoniae 157E = assay: In vitro minimum inhibitory concentration (MIC) assay, S. pneumoniae; set-up: key: Compounds which showed superior inhibition of S. aureus, S. pseumoniae and E. coli are indicated by “***,”; compounds which showed very good or good inhibition of S. aureus, S. pseumoniae and E. coli are indicated by “**” or “*” respectively; compounds which showed very good or good inhibition of S. aureus, S. pseumoniae and E. coli are indicated by “**” or “*” respectively; details: broth microdilution in CAMHB, 35° C., approximately 18 hour
Description: as §1, §2, §3

E. coli MG 1655 = assay: In vitro minimum inhibitory concentration (MIC) assay, E. coli; set-up: key: Compounds which showed superior inhibition of S. aureus, S. pseumoniae and E. coli are indicated by “***,”; compounds which showed very good or good inhibition of S. aureus, S. pseumoniae and E. coli are indicated by “**” or “*” respectively; compounds which showed very good or good inhibition of S. aureus, S. pseumoniae and E. coli are indicated by “**” or “*” respectively; details: broth microdilution in CAMHB, 35° C., approximately 18 hour
Description: as §1, §2, §3

| IC50 at 24 h (in vitro) [µg/mL] | Median MIC for S. aureus RN450 (S. aureus RN450) | Median MIC for S. pneumoniae 157E (S. pneumoniae 157E) | Median MIC for E. coli MG 1655 (E. coli MG 1655) | Compound |
| --- | --- | --- | --- | --- |
| > 25 | – | – | – | CN(C)c1ccc(O)c2c1C[C@H]1C[C@H]3[C@H](N(C)C)C(O)=C(C(N)=O)C(=O)[C@@]3(O)C(O)=C1C2=O [minocycline, Minocycline] |
| > 25 | – | – | – | C[C@H]1c2cccc(O)c2C(=O)C2=C(O)[C@]3(O)C(=O)C(C(N)=O)=C(O)[C@@H](N(C)C)[C@@H]3[C@@H](O)[C@@H]21 [doxycycline, Doxycycline] |
| – | *** | ** | * | CN(C)c1cc(-c2cc[nH]n2)c(O)c2c1C[C@H]1C[C@H]3[C@H](N(C)C)C(O)=C(C(N)=O)C(=O)[C@@]3(O)C(O)=C1C2=O |
| – | *** | *** | * | CN(C)c1cc(-c2cncnc2)c(O)c2c1C[C@H]1C[C@H]3[C@H](N(C)C)C(O)=C(C(N)=O)C(=O)[C@@]3(O)C(O)=C1C2=O |
| – | * | * | * | CCNC(=O)c1cc(N(C)C)c2c(c1O)C(=O)C1=C(O)[C@]3(O)C(=O)C(C(N)=O)=C(O)[C@@H](N(C)C)[C@@H]3C[C@@H]1C2 |
| – | * | * | * | CN(C)c1cc(-c2cn[nH]c2)c(O)c2c1C[C@H]1C[C@H]3[C@H](N(C)C)C(O)=C(C(N)=O)C(=O)[C@@]3(O)C(O)=C1C2=O |
| – | * | * | * | CN(C)c1cc(C(=O)N2CCCCC2)c(O)c2c1C[C@H]1C[C@H]3[C@H](N(C)C)C(O)=C(C(N)=O)C(=O)[C@@]3(O)C(O)=C1C2=O |
| – | * | * | * | CN(C)c1cc(C(=O)NOC(C)(C)C)c(O)c2c1C[C@H]1C[C@H]3[C@H](N(C)C)C(O)=C(C(N)=O)C(=O)[C@@]3(O)C(O)=C1C2=O |
| – | ** | ** | * | CN(C)c1cc(-c2ncco2)c(O)c2c1C[C@H]1C[C@H]3[C@H](N(C)C)C(O)=C(C(N)=O)C(=O)[C@@]3(O)C(O)=C1C2=O |
| – | ** | ** | * | CN(C)c1cc(C(=O)NC(C)(C)C)c(O)c2c1C[C@H]1C[C@H]3[C@H](N(C)C)C(O)=C(C(N)=O)C(=O)[C@@]3(O)C(O)=C1C2=O |
| – | *** | *** | * | CCC(=O)c1cc(N(C)C)c2c(c1O)C(=O)C1=C(O)[C@]3(O)C(=O)C(C(N)=O)=C(O)[C@@H](N(C)C)[C@@H]3C[C@@H]1C2 |
| – | *** | *** | * | CN(C)c1cccc(-c2cc(N(C)C)c3c(c2O)C(=O)C2=C(O)[C@]4(O)C(=O)C(C(N)=O)=C(O)[C@H](N(C)C)[C@@H]4C[C@@H]2C3)c1 |
| – | * | * | * | COCCN(C)C(=O)c1cc(N(C)C)c2c(c1O)C(=O)C1=C(O)[C@]3(O)C(=O)C(C(N)=O)=C(O)[C@@H](N(C)C)[C@@H]3C[C@@H]1C2 |
| – | * | * | * | CN(C)c1cc(-c2ccc(C(=O)O)s2)c(O)c2c1C[C@H]1C[C@H]3[C@H](N(C)C)C(O)=C(C(N)=O)C(=O)[C@@]3(O)C(O)=C1C2=O |
| – | * | * | * | CONC(=O)c1cc(N(C)C)c2c(c1O)C(=O)C1=C(O)[C@]3(O)C(=O)C(C(N)=O)=C(O)[C@@H](N(C)C)[C@@H]3C[C@@H]1C2 |
| – | * | * | * | CC(=O)NCCNC(=O)c1cc(N(C)C)c2c(c1O)C(=O)C1=C(O)[C@]3(O)C(=O)C(C(N)=O)=C(O)[C@@H](N(C)C)[C@@H]3C[C@@H]1C2 |
| – | *** | ** | * | CN(C)c1cc(-c2nccs2)c(O)c2c1C[C@H]1C[C@H]3[C@H](N(C)C)C(O)=C(C(N)=O)C(=O)[C@@]3(O)C(O)=C1C2=O |
| – | *** | *** | * | CN(C)c1cc(C(=O)Nc2ccccc2)c(O)c2c1C[C@H]1C[C@H]3[C@H](N(C)C)C(O)=C(C(N)=O)C(=O)[C@@]3(O)C(O)=C1C2=O |
| – | ** | ** | * | CN(C)c1cc(-c2cccnc2)c(O)c2c1C[C@H]1C[C@H]3[C@H](N(C)C)C(O)=C(C(N)=O)C(=O)[C@@]3(O)C(O)=C1C2=O |
| – | *** | *** | * | COCC#Cc1cc(N(C)C)c2c(c1O)C(=O)C1=C(O)[C@]3(O)C(=O)C(C(N)=O)=C(O)[C@@H](N(C)C)[C@@H]3C[C@@H]1C2 |
